Source: paper PMC9579398 (Clinical and Translational Science, 2022)
Read-outs that look alike come from different tables or passages of the source.

What was measured:
jejunum = conditions: mucosal to serosal direction, cited from earlier work
[1] = Ussing chamber drug transport across adult intestinal tissue; conditions: human
[2] = tested on: adult terminal ileum tissue; test: as above; conditions: adult, M > S (mucosal to serosal)
[3] = Ussing chamber drug transport across pediatric intestinal tissue; conditions: human
[4] = human in vivo; cited from earlier work
[5] = adult jejunum, ref Michiba et al., 2021 [19]
[6] = Papp, estimated marginal mean ± SE, adult, M > S (mucosal to serosal), mixed model
[7] = Papp, estimated marginal mean ± SE, adult, S > M (serosal to mucosal), mixed model
[8] = Papp, mean ± SD, adult, M > S (mucosal to serosal)
[9] = Papp, mean ± SD, adult, S > M (serosal to mucosal)
[10] = Papp, estimated marginal mean ± SE, pediatric, M > S (mucosal to serosal), mixed model
[11] = Papp, estimated marginal mean ± SE, pediatric, S > M (serosal to mucosal), mixed model
[12] = Papp, mean ± SD, pediatric, M > S (mucosal to serosal)
[13] = Papp, mean ± SD, pediatric, S > M (serosal to mucosal)

Papp [1, 6] | Papp [1, 7] | Papp [1, 8] | Papp [1, 9] | Papp, mean ± SD [2] | Papp [3, 10] | Papp [3, 11] | Papp [3, 12] | Papp [3, 13] | efflux ratio [1] | Papp at 4 µM [1, 9] | efflux ratio [3] | Papp at 4 µM [3, 13] | Structure (SMILES) | Papp (jejunum; [5]) | Papp (jejunum; jejunum, ref Sjoberg et al., 2013 [17]) | fraction absorbed [4]
12 ± 1.28 ×10⁻⁶ cm/s | 10.3 ± 1.27 ×10⁻⁶ cm/s | 12.4 ± 6.2 ×10⁻⁶ cm/s | 10.7 ± 5.02 ×10⁻⁶ cm/s | 12.38 ± 6.15 ×10^–6 cm/s | 7.98 ± 1.45 ×10⁻⁶ cm/s | 7.74 ± 1.47 ×10⁻⁶ cm/s | 7.49 ± 4.58 ×10⁻⁶ cm/s | 8.27 ± 4.7 ×10⁻⁶ cm/s | – | – | – | – | CC(C)NCC(O)COc1cccc2ccccc12 (stereo not shown) [Propranolol] | 7.8 ± 4.6 × 10^−6 cm/s | – | –
6.32 ± 0.97 ×10⁻⁶ cm/s | 11.2 ± 0.91 ×10⁻⁶ cm/s | 6.3 ± 2.8 ×10⁻⁶ cm/s | 11.2 ± 5.49 ×10⁻⁶ cm/s | – | 3.8 ± 0.88 ×10⁻⁶ cm/s | 7.53 ± 1 ×10⁻⁶ cm/s | 4.73 ± 2.04 ×10⁻⁶ cm/s | 7.53 ± 3.66 ×10⁻⁶ cm/s | 2.1 ± 1 | 11.2 ± 5.5 ×10⁻⁶ cm/s | 1.3 ± 0.6 | 7.5 ± 3.7 ×10⁻⁶ cm/s | CC(C)c1nc(N(C)S(C)(=O)=O)nc(-c2ccc(F)cc2)c1/C=C/[C@@H](O)C[C@@H](O)CC(=O)O [Rosuvastatin] | 1.6 ± 0.6 × 10^−6 cm/s | 7.0 ± 1.0 × 10^−6 cm/s | 50%
